Assay results published in publication PMC3664642, “A Peptide against Soluble Guanylyl Cyclase α1: A New Approach to Treating Prostate Cancer” (PLoS ONE, 2013).
Where no end group is shown, it is not given here.

Assays:
sGCα1 = target: T1, sGCα1 (Homo sapiens, UniProt Q02108); test: Biotin pulldown and competition from LNCaP extract; type: binding; conditions: competition, 150 µg unlabeled peptide vs 5 µg Peptide A-8R-Biotin; Fig. 2B
T1 sequence (Q02108 1-690): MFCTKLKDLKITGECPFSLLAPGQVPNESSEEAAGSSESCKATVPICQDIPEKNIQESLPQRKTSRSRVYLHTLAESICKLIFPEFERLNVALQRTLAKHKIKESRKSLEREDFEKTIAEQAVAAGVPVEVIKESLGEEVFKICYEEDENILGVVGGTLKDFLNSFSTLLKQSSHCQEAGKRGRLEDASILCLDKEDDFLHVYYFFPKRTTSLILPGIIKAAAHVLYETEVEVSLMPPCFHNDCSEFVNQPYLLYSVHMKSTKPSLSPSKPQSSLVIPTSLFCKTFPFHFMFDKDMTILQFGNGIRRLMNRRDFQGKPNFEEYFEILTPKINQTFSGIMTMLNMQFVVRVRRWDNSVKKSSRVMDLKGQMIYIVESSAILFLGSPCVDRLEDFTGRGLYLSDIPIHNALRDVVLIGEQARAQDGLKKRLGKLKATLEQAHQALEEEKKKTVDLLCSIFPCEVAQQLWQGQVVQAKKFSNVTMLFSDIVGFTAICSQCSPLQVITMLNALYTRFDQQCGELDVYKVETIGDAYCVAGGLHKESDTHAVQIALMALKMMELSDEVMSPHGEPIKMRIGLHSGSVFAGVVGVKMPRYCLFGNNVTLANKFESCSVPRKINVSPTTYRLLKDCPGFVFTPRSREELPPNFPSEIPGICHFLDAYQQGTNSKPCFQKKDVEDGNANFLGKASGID
Description: Immunoprecipitation (IP) in LNCaP cells was performed as described previously. Whole-cell extracts from LNCaP cells were subjected to IP using Protein A/G plus Agarose (Santa Cruz). IP antibodies were against sGCα1 (Cayman Chemical), sGCβ1 (Cayman Chemical), or rabbit IgG (Santa Cruz) as control. For Biotin pulldown, 5 µg Biotin-labeled Peptide A was incubated with NeutrAvidin Agarose Resin (Thermo Scientific) for 3 hours at 4°C, after which whole-cell extract from LNCaP cells was added and incubated overnight at 4°C. Resin was washed and eluted with SDS Sample buffer, followed by SDS-PAGE gel electrophoresis.
Figure 2 Peptide A-8R interacts with sGCα1 in prostate cancer cells. (A) LNCaP cells were treated with 25 µM Biotin-labeled Peptide A-8R for 2 hrs and subjected to immunocytochemistry using anti-sGCα1 or anti-Biotin antibody to measure subcellular co-localization of endogenous sGCα1 and Peptide A-8R. DAPI was used to stain nuclei. (B) LNCaP cytosolic extracts were incubated with Peptide A-8R-Biotin and subjected to purification using streptavidin-agarose. This pull-down experiment was repeated with competing excess amount of unlabeled Peptide C-8R or Peptide A-8R. In both cases Western blotting was used to measure the co-purification of sGCα1. […] Co-purified Peptide A-8R-FITC was quantified by measuring fluorescence signal emission. […] Cell number was measured after 0–48 hrs of incubation. […]

p15, p21, CDK6 = test: Expression of cell-cycle regulatory proteins (Western blot), C81 cells; type: cell-based; conditions: 25 µM, Fig. S7
Description: Western blotting was performed as described using primary antibodies against sGCα1 (Cayman Chemical), pan-Akt (Cell Signaling Technology), phospho-AKT (S473, T308) (Cell Signaling Technology), phospho-PDK1 (Cell Signaling Technology), phospho-GSK-3β (Cell Signaling Technology), PARP (Cell Signaling Technology), and β-Actin (Abcam).
Supplementary file pone.0064189.s007.tif: Figure S7 Peptide A-8R induces expression of p15 and p21 in prostate cancer cells. C81 cells treated with 25 µM Peptide A-8R or Peptide C-8R for different times, as shown, monitored for expression of p15, p21, and CDK6 by Western blotting (antibodies from Cell Signaling Technology). Note that β-actin was used to control for protein loading. (TIF) Click here for additional data file.

p53 = p53 activity and dependence; type: cell-based; conditions: prostate cancer cells; data not shown
CWR-22Rv1 cells = test: Proliferation/cytotoxicity, castration-resistant CWR-22Rv1 cells (MTT); type: cell-based; conditions: different concentrations; Fig. 3C; averages of three independent experiments; P<0.03 vs Vehicle
Description: LNCaP, C81, PC-3 and Cos cells were grown as previously described. CWR-22Rv1 cells were cultured in RMPI-1640 medium with 10% FBS and 50 µg/ml Gentamicin (Gibco). Control siRNA, sGCα1 siRNA and AKT siRNA (Dharmacon) at 50 nM final concentration was transfected into cells using Lipofectamine siMAX (Invitrogen).
For proliferation, cells were grown in medium containing 2% FBS extracted with dextran-coated charcoal (DCC). 48 hours later, ethanol or 1 nM R1881 was added to the cells followed by peptide treatment. The MTT assay (Sigma) was used as before to determine cell number. For apoptosis, 5000 cells were seeded in 96-well plates and treated with Vehicle (DMSO), Peptide A-8R (25 µM), Etoposide (50 µM) (Sigma) at different time points. The Caspase (3/7) activity was measured using Apo-ONE Homogeneous Caspase-3/7 assay kit (Promega). PARP cleavage was also used to measure apoptosis, and is described below.
Vehicle or different concentrations of Peptide A-8R or C-8R, as shown, was added to (A) hormone-dependent LNCaP cells grown in 2% serum without or with 1 nM R1881, (C) castration-resistant C81 or CWR-22Rv1 cells, or (E) sGCα1-deficient PC-3 or Cos cells. Cell number was measured after various days of incubation. Data points represent averages of three independent experiments plus standard deviations. […]

Q: Which “inhibition of Peptide A-8R-Biotin interaction with sGCα1” value (sGCα1) does the source give for Ac-TFCKAFPFHIIRRRRRRRR [Peptide A-8R] here?
A: The value was “significantly inhibited Peptide A-8R-Biotin interaction with sGCα1”.

Q: And the “expression of CDK6” value (p15, p21, CDK6)?
A: The value was “unchanged”.

Q: And the “expression of p15 and p21” value (p15, p21, CDK6)?
A: The value was “expression increased”.

Q: And the “effect on p53 activity and p53 dependence of apoptosis” value (p53)?
A: Its value is “does not disrupt p53 activity nor depend on endogenous p53 for inducing apoptosis”.

Q: And the “suppression of growth of CWR-22Rv1 cells” value (CWR-22Rv1 cells)?
A: The value was “also effective on another hormone-refractory prostate cancer cell line, CWR-22Rv1 cells”.
